# From patent US11053235B2, “Substituted 1,4-dihydropyrimidines for the treatment of HBV infection or HBV-induced diseases” (Janssen Sciences Ireland Unlimited Company, priority 2018, dated 2021)
# Like-named read-outs stand apart in the source and are kept apart here.
# Tests used:
# HBV = assay: Anti-viral assay in HepG2.2.15 cells: HBV inhibitory activity (HBV DNA in culture medium by q-PCR); assay type: cell-based; settings: HepG2.2.15 cells, 6 days treatment, HBV DNA in culture medium by q-PCR, highest concentration 10 uM, read-out: EC50
# Excerpt: (§1) Example 2: Anti-Viral Assay in HepG2.2.15 Cells
# (§2) 1.1. Cell Line • HepG2.2.15 (the HepG2.2.15 cell line can be produced by transfection of the HepG2 cell line as described in Sells, Chen, and Acs 1987 (Proc. Natl. Acad. Sci. USA 84:1005-1009), and the HepG2 cell line is available from ATCC® under number HB-8065™). Reagents • DMEM/F12 (INVITROGEN-11330032) • FBS (GIBCO-10099-141) • Dimethyl sulfoxide(DMSO) (SIGMA-D2650) • Penicillin-streptomycin solution (HYCLONE-SV30010) • NEAA (INVITROGEN-1114050) • L-Glutamine (INVITROGEN-25030081) • Geneticin Selective Antibiotic (G418, 500 mg/ml) (INVITROGEN-10131027) • Trypsinase digestion solution (INVITROGEN-25300062) • CCK8 (BIOLOTE-35004) • QIAamp 96 DNA Blood Kit (12) (QIAGEN-51162) • FastStart Universal Probe Mast Mix (ROCHE-04914058001)
# (§3) 2.1. HBV Inhibitory Activity and Cytotoxicity Determination
# (§4) Seed the cell HepG2.2.15 cells into 96-well plate in 2% FBS culture medium at the density of 40,000 cells/well and 5,000 cells/well for HBV inhibitory activity and cytotoxicity determination, respectively. After seeding, incubate the cell plates at 37° C., 5% CO2 overnight. The next day, medium containing compounds is added to the cell to treat the cells for 6 days with medium refreshed once in the middle of the treatment. 8 dose points with 3 folds dilution of each compound were adopted and the highest concentration of the compounds is 10 uM and 100 uM for HBV inhibitory activity and cytotoxicity determination, respectively.
# The HBV DAN change in the cell culture medium induced by the compounds is measured by q-PCR method. Briefly, the HBV DNA in the culture medium is extracted using QIAamp 96 DNA Blood Kit according to the manual and then quantified by q-PCR using the primers and probe in the table below.
# (§5) EC50 and CC50 values are calculated by the GRAPHPAD PRISM software.
# [1] = Cytotoxicity determination in HepG2.2.15 cells (CCK-8); assay type: cell-based; settings: human, 6 days treatment, CCK-8, highest concentration 100 uM
# Excerpt: as §1, §2, §3, §4
# After 6 days of compounds treatment, add 20 μl CCK-8 reagents to each well of cytotoxicity assay plates, incubate the plate at 37° C., 5% CO2 for 2.5 h and measure the absorbance at 450 nm wavelength, at the same time read the absorbance at 630 nm wavelength as reference.
# as §5
# [2] = Hepatitis B virus, HepG2.2.15, 144 h
Structure (SMILES),EC50 (HBV; [2]) [nM],CC50 at 6 days [1] [nM],EC50 (HBV) [nM]
"CCOC(=O)C1=C([C@H]2CC[C@H](c3nc(CCC(=O)O)co3)CC2)NC(c2nccs2)=NC1c1ccc(F)c(F)c1Cl (relative stereo) [Compound I-24, (trans)-3-(2-(4-(6-(2-Chloro-3,4-difluorophenyl)-5-(ethoxycarbonyl)-2-(thiazol-2-yl)-3,6-dihydropyrimidin-4-yl)cyclohexyl)oxazol-4-yl)propanoic acid]",12,7550,
"COC(=O)C1=C([C@H]2CC[C@H](c3nc(C(=O)O)co3)CC2)NC(c2nccs2)=NC1c1ccc(F)c(F)c1Cl (single isomer, unassigned) [Compound I-1-C, (trans)-2-(4-(6-(2-Chloro-3,4-difluorophenyl)-5-(methoxycarbonyl)-2-(thiazol-2-yl)-3,6-dihydropyrimidin-4-yl)cyclohexyl)oxazole-4-carboxylic Acid]",7.5,13600,
"CCOC(=O)C1=C([C@H]2CC[C@H](c3nc(C(=O)O)co3)CC2)NC(c2nccs2)=NC1c1ccc(F)c(F)c1Cl (single isomer, unassigned) [Compound I-2-D, (trans)-2-(4-(6-(2-Chloro-3,4-difluorophenyl)-5-(ethoxycarbonyl)-2-(thiazol-2-yl)-3,6-dihydropyrimidin-4-yl)cyclohexyl)oxazole-4-carboxylic Acid]",6,9370,
"COC(=O)C1=C([C@H]2CC[C@H](c3nc(C(=O)O)co3)CC2)NC(c2nccs2)=NC1c1cccc(F)c1C (single isomer, unassigned) [Compound I-3-D, trans-2-(4-(6-(3-Fluoro-2-methylphenyl)-5-(methoxycarbonyl)-2-(thiazol-2-yl)-3,6-dihydropyrimidin-4-yl)cyclohexyl)oxazole-4-carboxylic Acid]",140,14200,
"COC(=O)C1=C([C@H]2CC[C@H](c3nc(C(=O)O)co3)CC2)NC(c2nccs2)=NC1c1ccc(F)cc1Cl (single isomer, unassigned) [Compound I-4-B, (trans)-2-(4-(6-(2-Chloro-4-fluorophenyl)-5-(methoxycarbonyl)-2-(thiazol-2-yl)-3,6-dihydropyrimidin-4-yl)cyclohexyl)oxazole-4-carboxylic Acid]",11,16400,
"COC(=O)C1=C([C@H]2CC[C@H](c3nc(C(=O)O)co3)CC2)NC(c2nccs2)=NC1c1cccc(F)c1Cl (single isomer, unassigned) [Compound I-5-B, (trans)-2-(4-(6-(2-Chloro-3-fluorophenyl)-5-(methoxycarbonyl)-2-(thiazol-2-yl)-3,6-dihydropyrimidin-4-yl)cyclohexyl)oxazole-4-carboxylic Acid]",60,19300,
"COC(=O)C1=C([C@H]2CC[C@H](c3nc(C(=O)O)co3)CC2)NC(c2nccs2)=NC1c1ccc(F)cc1C (single isomer, unassigned) [Compound I-6-B, (trans)-2-(4-(6-(4-Fluoro-2-methylphenyl)-5-(methoxycarbonyl)-2-(thiazol-2-yl)-3,6-dihydropyrimidin-4-yl)cyclohexyl)oxazole-4-carboxylic Acid]",72,17400,
"COC(=O)C1=C([C@H]2CC[C@H](c3nc(C(=O)O)co3)CC2)NC(c2ncc(F)cc2F)=NC1c1ccc(F)c(F)c1Cl (single isomer, unassigned) [Compound I-7-B, (trans)-2-(4-(6-(2-chloro-3,4-difluorophenyl)-2-(3,5-difluoropyridin-2-yl)-5-(methoxycarbonyl)-3,6-dihydropyrimidin-4-yl)cyclohexyl)oxazole-4-carboxylic acid]",24,14300,
"COC(=O)C1=C(C23CC(c4nc(C(=O)O)co4)(C2)C3)NC(c2nccs2)=NC1c1ccc(F)c(F)c1Cl (single isomer, unassigned) [Compound I-8-B, 2-(3-(6-(2-Chloro-3,4-difluorophenyl)-5-(methoxycarbonyl)-2-(thiazol-2-yl)-3,6-dihydropyrimidin-4-yl)bicyclo[1.1.1]pentan-1-yl)oxazole-4-carboxylic Acid]",51,26600,
"CCOC(=O)C1=C([C@H]2CC[C@H](c3nc(C(=O)O)co3)CC2)NC(c2nccs2)=NC1c1cccc(F)c1Cl (single isomer, unassigned) [Compound I-9-B, (trans)-2-(4-(6-(2-chloro-3-fluorophenyl)-5-(ethoxycarbonyl)-2-(thiazol-2-yl)-3,6-dihydropyrimidin-4-yl)cyclohexyl)oxazole-4-carboxylic Acid]",25,12300,
"CCOC(=O)C1=C([C@H]2CC[C@H](c3nc(C(=O)O)co3)CC2)NC(c2nccs2)=NC1c1ccc(F)cc1Cl (single isomer, unassigned) [Compound I-10-C, (trans)-2-(4-(6-(2-Chloro-4-fluorophenyl)-5-(ethoxycarbonyl)-2-(thiazol-2-yl)-3,6-dihydropyrimidin-4-yl)cyclohexyl)oxazole-4-carboxylic Acid]",22,7640,
"CCOC(=O)C1=C([C@H]2CC[C@H](c3nc(C(=O)O)co3)CC2)NC(c2nccs2)=NC1c1cccc(F)c1C (single isomer, unassigned) [Compound I-11-B, (trans)-2-(4-(5-(Ethoxycarbonyl)-6-(3-fluoro-2-methylphenyl)-2-(thiazol-2-yl)-3,6-dihydropyrimidin-4-yl)cyclohexyl)oxazole-4-carboxylic Acid]",37,12100,
"CCOC(=O)C1=C([C@H]2CC[C@H](c3nc(C(=O)O)co3)CC2)NC(c2nccs2)=NC1c1ccc(F)cc1C (single isomer, unassigned) [Compound I-12-C, (trans)-2-(4-(5-(Ethoxycarbonyl)-6-(4-fluoro-2-methylphenyl)-2-(thiazol-2-yl)-3,6-dihydropyrimidin-4-yl)cyclohexyl)oxazole-4-carboxylic Acid]",36,11100,
"CCOC(=O)C1=C(C2CC=C(c3nc(C(=O)O)co3)CC2)NC(c2nccs2)=NC1c1ccc(F)c(F)c1Cl (single isomer, unassigned) [Compound I-13-C, 2-(4-(6-(2-chloro-3,4-difluorophenyl)-5-(ethoxycarbonyl)-2-(thiazol-2-yl)-3,6-dihydropyrimidin-4-yl)cyclohex-1-en-1-yl)oxazole-4-carboxylic Acid]",,5610,6.5
"CCOC(=O)C1=C([C@H]2CC[C@H](c3nc(C(=O)O)c(C)o3)CC2)NC(c2nccs2)=NC1c1ccc(F)c(F)c1Cl (single isomer, unassigned) [Compound I-14-B, (trans)-2-(4-(6-(2-Chloro-3,4-difluorophenyl)-5-(ethoxycarbonyl)-2-(thiazol-2-yl)-3,6-dihydropyrimidin-4-yl)cyclohexyl)-5-methyloxazole-4-carboxylic Acid]",4.7,3720,
"CCOC(=O)C1=C([C@H]2CC[C@H](Cc3nc(C(=O)O)co3)CC2)NC(c2nccs2)=NC1c1ccc(F)c(F)c1Cl (single isomer, unassigned) [Compound I-15-A, (trans)-2-((4-(6-(2-chloro-3,4-difluorophenyl)-5-(ethoxycarbonyl)-2-(thiazol-2-yl)-3,6-dihydropyrimidin-4-yl)cyclohexyl)methyl)oxazole-4-carboxylic Acid]",66,6270,
"COC(=O)C1=C([C@H]2CC[C@H](c3nc(CC(=O)O)co3)CC2)NC(c2nccs2)=NC1c1ccc(F)c(F)c1Cl (single isomer, unassigned) [Compound I-16-B, (trans)-2-(2-(4-(6-(2-Chloro-3,4-difluorophenyl)-5-(methoxycarbonyl)-2-(thiazol-2-yl)-3,6-dihydropyrimidin-4-yl)cyclohexyl)oxazol-4-yl)acetic Acid]",4.8,12400,
"CCOC(=O)Cc1coc([C@H]2CC[C@H](C3=C(C(=O)OCC)C(c4ccc(F)c(F)c4Cl)N=C(c4nccs4)N3)CC2)n1 (single isomer, unassigned) [VII-23-Y, (trans)-Ethyl 4-(2-chloro-3,4-difluorophenyl)-(4-(4-(2-ethoxy-2-oxoethyl)oxazol-2-yl)cyclohexyl)-2-(thiazol-2-yl)-1,4-dihydropyrimidine-5-carboxylate]",23,,
